In US20200268702A1, “METHODS OF TREATING […]” (Amarin Pharmaceuticals Ireland Limited, priority 2013, published 2020):

Test system: patients with fasting triglyceride levels ≥200 mg/dl and <500 mg/dl despite statin therapy
Assay: ANCHOR study: 12-week placebo-controlled study of >96% E-EPA on statin therapy, metabolic syndrome subgroup
Assay type: in vivo, human
Description: A multi-center, placebo-controlled, randomized, double-blind, 12-week study was performed to evaluate the efficacy and safety of >96% E-EPA in patients with fasting triglyceride levels ≥200 mg/dl and <500 mg/dl despite statin therapy (the mean of two qualifying entry values needed to be ≥185 mg/dl and at least one of the values needed to be ≥200 mg/dl). The primary objective of the study was to determine the efficacy of >96% E-EPA 2 g daily and 4 g daily, compared to placebo, in lowering fasting TG levels in patients with high risk for cardiovascular disease and with fasting TG levels ≥200 mg/dL and <500 mg/dL, despite treatment to LDL-C goal on statin therapy.
The population for this study was men and women >18 years of age with a body mass index ≤45 kg/m^2 with fasting TG levels greater than or equal to 200 mg/dl and less than 500 mg/dl and on a stable does of statin therapy (with or without ezetimibe). The statin was atorvostatin, rosuvastatin or simvastatin. The dose of statin must have been stable for ≥4 weeks prior to the LDL-C/TG baseline qualifying measurement for randomization. The statin dose was optimized such that the patients are at their LDL-C goal at the LDL-C/TG baseline qualifying measurements. The same statin at the same dose was continued until the study ended.
Approximately 702 patients were randomized at approximately 80 centers in the U.S. The study was a 18- to 20-week, Phase 3, multi-center study consisting of 2 study periods: (1) A 6- to 8-week screening period that included a diet and lifestyle stabilization, a non-statin lipid-altering treatment washout, and an LDL-C and TG qualifying period and (2) A 12-week, double-blind, randomized, placebo-controlled treatment period.
After confirmation of qualifying fasting LDL-C and TG values, eligible patients entered a 12-week, randomized, double-blind treatment period. At Visit 4 (Week 0), patients were randomly assigned to 1 of the following treatment groups: • >96% E-EPA 2 g daily, • >96% E-EPA 4 g daily, or • Placebo.
>96% E-EPA was provided in 1 g liquid-filled, oblong, gelatin capsules. The matching placebo capsule was filled with light liquid paraffin and contained 0 g of >96% E-EPA. >96% E-EPA capsules were to be taken with food (i.e. with or at the end of a meal).
During the double-blind treatment period, patients were to take 2 capsules (>96% E-EPA or matching placebo) in the morning and 2 capsules in the evening for a total of 4 capsules per day. • Patients in the >96% E-EPA 2 g/day treatment group received 1>96% E-EPA 1 g capsule and 1 matching placebo capsule in the morning and in the evening. • Patients in the >96% E-EPA 4 g/day treatment group received 2>96% E-EPA 1 g capsules in the morning and evening.
The primary efficacy variable for the double-blind treatment period was percent change in TG from baseline to Week 12 endpoint. […]

[1] = 4 g/day, week 12, listed as IPE

Compound: CC/C=C\C/C=C\C/C=C\C/C=C\C/C=C\CCCC(=O)OCC [AMR101, ethyl eicosapentaenoate]
- Apo B, Change from Baseline, % (2 g/day, week 12): 3.3%
- Apo B, End of Treatment, median (IQR) (2 g/day, week 12): 95.0 (23.00) mg/dL
- Apo B, Median % Change From Baseline vs Placebo (2 g/day, week 12): −2.6%
- HDL-C, Change from Baseline, % (2 g/day, week 12): 2.2%
- HDL-C, End of Treatment, median (IQR) (2 g/day, week 12): 38.0 (12.00) mg/dL
- HDL-C, Median % Change From Baseline vs Placebo (2 g/day, week 12): −1.4%
- LDL-C, Change from Baseline, % (2 g/day, week 12): 2.5%
- LDL-C, End of Treatment, median (IQR) (2 g/day, week 12): 87.0 (28.00) mg/dL
- LDL-C, Median % Change From Baseline vs Placebo (2 g/day, week 12): −2.4%
- Non-HDL-C, Change from Baseline, % (2 g/day, week 12): 2.7%
- Non-HDL-C, End of Treatment, median (IQR) (2 g/day, week 12): 134.0 (44.00) mg/dL
- Non-HDL-C, Median % Change From Baseline vs Placebo (2 g/day, week 12): −4.4%
- TG, Change from Baseline, % (2 g/day, week 12): −5.8%
- TG, End of Treatment, median (IQR) (2 g/day, week 12): 246.0 (117.00) mg/dL
- TG, Median % Change From Baseline vs Placebo (2 g/day, week 12): −10.3%
- hsCRP, Change from Baseline, % (2 g/day, week 12): 8.4%
- hsCRP, End of Treatment, median (IQR) (2 g/day, week 12): 2.5 (3.35) mg/L
- hsCRP, Median % Change From Baseline vs Placebo (2 g/day, week 12): −7.6%
- Apo B, Change from Baseline, % (4 g/day, week 12): −2.2%
- Apo B, End of Treatment, median (IQR) (4 g/day, week 12): 89.0 (26.00) mg/dL
- HDL-C, Change from Baseline, % (4 g/day, week 12): 0.0%
- HDL-C, End of Treatment, median (IQR) (4 g/day, week 12): 36.0 (12.00) mg/dL
- HDL-C, Median % Change From Baseline vs Placebo (4 g/day, week 12): −4.0%
- LDL-C, Change from Baseline, % (4 g/day, week 12): 2.1%
- LDL-C, End of Treatment, median (IQR) (4 g/day, week 12): 83.0 (31.00) mg/dL
- Non-HDL-C, Change from Baseline, % (4 g/day, week 12): −5.3%
- Non-HDL-C, End of Treatment, median (IQR) (4 g/day, week 12): 121.0 (37.00) mg/dL
- TG, Change from Baseline, % (4 g/day, week 12): −17.4%
- TG, End of Treatment, median (IQR) (4 g/day, week 12): 221.0 (93.50) mg/dL
- hsCRP, Change from Baseline, % (4 g/day, week 12): −3.4%
- hsCRP, End of Treatment, median (IQR) (4 g/day, week 12): 2.0 (3.00) mg/L
- Apo B, Median % Change From Baseline vs Placebo [1]: −8.8%
- LDL-C, Median % Change From Baseline vs Placebo [1]: −5.2%
- Non-HDL-C, Median % Change From Baseline vs Placebo [1]: −13.5%
- TG, Median % Change From Baseline vs Placebo [1]: −21.7%
- hsCRP, Median % Change From Baseline vs Placebo [1]: −23.0%
